In patent publication US20090047368A1, “Polymeric polyphenol extracted from fermented tea, therapeutic agent for mitochondrial disease, preventive/therapeutic agent for diabetes mellitus, and food or beverage” (University Of Tsukuba, priority 2004, published 2009):

System: B6 mice (C57BL)
Test: Blood glucose in B6 mice, high- versus low-molecular-weight polyphenols
Type: in vivo
Settings: 0.27 mg/day intraperitoneal, 15 days
Experimental: The procedures for the experiment were similar to those employed in Example 7. In this experiment, B6 mice (C57BL; purchased from CLEA Japan, Inc.) were used. […] The low-molecular-weight polyphenol group was given a PBS solution of epicatechin daily through intraperitonal injection at a dose of 0.27 mg/day. Blood samples were collected on the first day of the administration and 15 days thereafter for the measurement of blood glucose levels. […] The horizontal axis in the figure represents the number of days from the start of the administration. The vertical axis represents percentage (%) changes in blood glucose based on the blood glucose level on the first day at 100.

With `Oc1cc(O)c2c(c1)O[C@H](c1ccc(O)c(O)c1)[C@H](O)C2` [low-molecular-weight polyphenols, epicatechin] the “decrease in blood glucose relative to the first day (100)” value was “little change”.
